Molecular target: NAMPT (recombinant human) (Homo sapiens, UniProt P43490)
Test: biolayer interferometry
Type: binding

NAMPT (recombinant human), sequence (P43490 whole entry): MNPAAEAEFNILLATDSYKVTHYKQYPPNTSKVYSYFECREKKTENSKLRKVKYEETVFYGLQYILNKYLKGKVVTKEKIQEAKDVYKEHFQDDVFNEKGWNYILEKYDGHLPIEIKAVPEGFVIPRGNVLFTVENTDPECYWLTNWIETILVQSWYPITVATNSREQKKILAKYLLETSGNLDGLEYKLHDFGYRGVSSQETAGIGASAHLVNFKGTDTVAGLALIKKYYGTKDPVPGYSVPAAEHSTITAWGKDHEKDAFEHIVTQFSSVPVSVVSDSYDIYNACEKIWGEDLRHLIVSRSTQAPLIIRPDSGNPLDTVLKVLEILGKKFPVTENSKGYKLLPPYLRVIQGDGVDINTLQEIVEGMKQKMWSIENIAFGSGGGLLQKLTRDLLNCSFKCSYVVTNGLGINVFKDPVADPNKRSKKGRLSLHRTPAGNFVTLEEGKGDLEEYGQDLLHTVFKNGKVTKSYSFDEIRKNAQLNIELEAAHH

- Kd: 106 µM
SMILES: O=C(CC(C(=O)O)c1c[nH]c2ccccc12)c1ccc(F)cc1F (racemic) [MA-5]

From paper doi:10.1101/2025.04.18.649305v1 (biorxiv, 2025)
